From patent publication US20260217701A1, “SELECTIVE BET INHIBITORS AND USES THEREOF” (Tay Therapeutics Limited, priority 2022, published 2026)

Columns and labels:
BRD4 BD2 = target: T1, BRD4 BD2 (Homo sapiens, UniProt O60885); assay: NanoBRET bromodomain assay, NanoLuc-BRD4-BD2 in HEK293 cells; type: binding; conditions: for Fold Selectivity BRD4 BD1/BD2: IC50 BD1/IC50 BD2, qualitative if an IC50 is at the upper limit
T1 construct: HEK293 cells were transfected using NanoLuc-BRD4-BD1 or NanoLuc-BRD4-BD2 fusion vectors
Experimental: (§1) Plates were then incubated at 37° C.+5% CO2 incubator for 2 hours.
(§2) Fold Selectivity Calculated (IC50 BD1/IC50 BD2).

BRD4 BD1 = target: T2, BRD4 BD1 (Homo sapiens, UniProt O60885); assay: NanoBRET bromodomain assay, NanoLuc-BRD4-BD1 in HEK293 cells; type: binding
T2 construct: HEK293 cells were transfected using NanoLuc-BRD4-BD1 or NanoLuc-BRD4-BD2 fusion vectors
Experimental: Exemplary compounds of the disclosure are active against BRD4 BD2 and selective over BRD4 BD1. BRD4 is a representative example of the BET family, as the binding sites of all BET family members are structurally similar. […] IC50s and fold selectivity's are determined as described below and are represented in Table 1.
as §1, §2

| IC50 (BRD4 BD2) | Fold Selectivity BRD4 BD1/BD2 (BRD4 BD2) | IC50 (BRD4 BD1) | Structure (SMILES) |
| --- | --- | --- | --- |
| < 10 nM | xxxx (Fold >1000) | > 1000 nM | Cc1cc(-c2cc3c(-c4cc(=O)n(C5CC5)cc4-c4ccccc4)cn(C)c(=O)c3[nH]2)cc(C)n1.Cl [Example 28, 4-(1-cyclopropyl-2-oxo-5-phenyl-1,2-dihydropyridin-4-yl)-2-(2,6-dimethylpyridin-4-yl)-6-methyl-1,6-dihydro-7H-pyrrolo[2,3-c]pyridin-7-one hydrogen chloride] |
| 200 to 1000 nM | x (Fold >2 and ≤50) | > 1000 nM | Cc1cc(-c2cc3c(-c4cc(=O)n(C)cc4-c4ccc(S(C)(=O)=O)cc4)cn(C)c(=O)c3[nH]2)cc(C)n1 [Example 86] |
| 10 to 50 nM | xxx (Fold >200 and ≤1000) | > 1000 nM | Cc1cccc(C)c1Oc1cn(C)c(=O)cc1-c1cn(C)c(=O)c2[nH]c(-c3ccccn3)cc12 [Example 38, 4-(5-(2,6-dimethylphenoxy)-1-methyl-2-oxo-1,2-dihydropyridin-4-yl)-6-methyl-2-(pyridin-2-yl)-1,6-dihydro-7H-pyrrolo[2,3-c]pyridin-7-one] |
| 50 to 200 nM | xx (Fold >50 and ≤200) | > 1000 nM | Cc1cccc(C)c1Oc1cn(C)c(=O)cc1-c1cn(C)c(=O)c2[nH]c(-c3ccc(F)c(F)c3F)cc12 [Example 93] |
| 10 to 50 nM | xxx (Fold >200 and ≤1000) | > 1000 nM | Cc1cccc(C)c1Oc1cn(C)c(=O)cc1-c1cn(C)c(=O)c2[nH]c(-c3cc(CO)ccc3F)cc12 [Example 92] |
| 10 to 50 nM | xxx (Fold >200 and ≤1000) | > 1000 nM | Cc1cccc(C)c1Oc1cn(C)c(=O)cc1-c1cn(C)c(=O)c2[nH]c(-c3ccc(OC(F)F)cc3F)cc12 [Example 97] |
| < 10 nM | xxxx (Fold >1000) | > 1000 nM | COc1cccc(-c2cc3c(-c4cc(=O)n(C)cc4Oc4c(C)cccc4C)cn(C)c(=O)c3[nH]2)c1F [Example 56, 4-(5-(2,6-dimethylphenoxy)-1-methyl-2-oxo-1,2-dihydropyridin-4-yl)-2-(2-fluoro-3-methoxyphenyl)-6-methyl-1,6-dihydro-7H-pyrrolo[2,3-c]pyridin-7-one] |
| 200 to 1000 nM | x (Fold >2 and ≤50) | > 1000 nM | Cn1cc(-c2c(-c3ccccc3)cn(CCO)c(=O)c2C(F)(F)F)c2cc(-c3cnn(C(F)(F)F)c3)[nH]c2c1=O [Example 68, 4-(1-(2-hydroxyethyl)-2-oxo-5-phenyl-3-(trifluoromethyl)-1,2-dihydropyridin-4-yl)-6-methyl-2-(1-(trifluoromethyl)-1H-pyrazol-4-yl)-1,6-dihydro-7H-pyrrolo[2,3-c]pyridin-7-one] |
